Results: patent publication US20200368315A1, “ANTIMICROBIAL PEPTIDES AND ADMIXTURES THEREOF SHOWING ANTIMICROBIAL ACTIVITY AGAINST GRAM-NEGATIVE PATHOGENS” (priority 2017, published 2020)
In brackets after ≈: the same amount, converted by molar mass. Several values for one entry are separate records, joined by “and”; a condition that tells them apart may be missing. Equal values may be shown once. Read-outs that look alike come from different tables or passages of the source.

Columns and labels:
K. pneumoniae LMG20218 [1] = assay type: cell-based, Klebsiella pneumoniae; settings: nisin + GNP
Excerpt: (§1) The test of synergistic effect was processed by conducting standard chequerboard broth microdilution assays. Nisin (Drug X) was loaded two fold serially diluted from row 1 to 10 in X-axis while GNPs (Drug Y) were loaded in eight two fold serially diluted concentrations from line A to H in Y-axis (FIG. 1). The original concentrations of peptides were MICs of each. Row 11 are used as growth control with no peptide was included, while row 12 with MHB medium-only wells was included as a sterility control as referred before. 50 uL fresh bacterial suspension was added to well 1-11 and final volume of each well on the plate is 100 uL.
(§2) To determine whether the combination therapy is additive, synergistic or antagonistic, fractional inhibitory concentration (FIC) indices were calculated. FICI=FICa+FICb=MICac/MICa+MICbc/MICb. The MICa/MICb is the MIC of compound A/B alone. MICac is the MIC of compound A in combination with compound B and MICbc is the MIC of compound B when it was combination with compound A. […]. FICa is FIC of compound A while FICb is FIC of compound B. The FICI is interpreted as follows: synergistic, FICI≤0.5; additive, 0.5<FICI<1; indifferent, 1<FICI<2; antagonistic, FICI>2.

P. aeruginosa LMG 6395 [2] = tested on: P. aeruginosa LMG 6395
Procedure: (§3) The test of synergistic effect was processed by conducting standard chequerboard broth microdilution assays. […] Row 11 are used as growth control with no peptide was included, while row 12 with MHB medium-only wells was included as a sterility control as referred before. 50 uL fresh bacterial suspension was added to well 1-11 and final volume of each well on the plate is 100 uL.
(§4) The test of synergistic effect was processed as method 1.4.
as §2

E. aerogenes LMG 02094 [3] = tested on: E. aerogenes LMG 02094
Procedure: as §3, §4, §2

E. coli LMG15862 [4] = tested on: E. coli LMG15862
Procedure: as §3, §4, §2

K. pneumoniae LMG20218 [5] = tested on: K. pneumoniae LMG20218
Procedure: as §3, §4, §2

A. baumannii LMG01041 [6] = tested on: A. baumannii LMG01041
Procedure: as §3, §4, §2

E. coli LMG15862 [7] = assay type: cell-based, Escherichia coli; settings: nisin + GNP
Excerpt: as §1, §2

A. baumannii LMG01041 [8] = assay type: cell-based, Acinetobacter baumannii; settings: nisin + GNP
Excerpt: as §1, §2

P. aeruginosa LMG 6395 [9] = assay type: cell-based, Pseudomonas aeruginosa; settings: nisin + GNP
Excerpt: as §1, §2

E. aerogenes LMG 02094 [10] = assay type: cell-based, Enterobacter aerogenes; settings: nisin + GNP
Excerpt: as §1, §2

L. lactis MG1363 [11] = settings: L. lactis MG1363
[12] = Cell viability (ATP levels, CellTiter-Glo); settings: human
Procedure: ATP levels were measured by adding 50 μL of CellTiter-Glo reagent to each well and after 5 minutes of incubation luminescence was measured with SpectraMax i3.
96-well plates were seeded with HEK293 cells at concentration of 30,000 cells per well in 100 μL of DMEM growth media supplemented with 1% NEAA and 10% FBS. Border wells were filled with 100 μL of sterile PBS. The next day compounds were added to cells. Compounds were first 2× diluted in 96-well V-bottom plate in PBS. After that compounds were mixed with media in 96-deep-well plate for final concentrations. Growth media from 3 plates was aspirated and replaced with 100 μL of prepared compounds. Compounds were tested in duplicate. ATP levels were measured by adding 50 μL of CellTiter-Glo reagent to each well and after 5 minutes of incubation luminescence was measured with SpectraMax i3. […] The potential effects were then calculated and presented as IC50 values (μg/mL).

[13] = tested on: Escherichia coli ATCC 25922; assay: microbe, parasite or virus in culture; assay type: cell-based; settings: Escherichia coli, ATCC25922
Procedure: (§5) Testing was performed according to CLSI (Clinical Laboratory Standards Institute) guidelines. Read out of the study was determination of MIC—minimal inhibitory concentration expressed in μg/mL.
(§6) Out of these PBS solutions, 76.8 μL was transferred to 1423.2 μL of MH media in deep well for testing compound alone. […] Out of these working solutions 100 μL were transferred to wells in the third column of 96-well assay plates. Assay plates were previously filled with 50 μL of MH media in all wells except for the wells in the third column.
(§7) Microorganisms used were all revived from skim milk storage at −70° C. by plating them on MH agar plates. The following day a single colony of each microorganism was again streaked on fresh agar plates. The next day, using direct colony suspension method, broth solutions that achieve turbidity equivalent to 0.5 McFarland standard for each microorganism were prepared. […] Out of these suspensions, actual inoculums were prepared by diluting them 100× with MH media giving final microorganism count of 2-8×10^5 CFU/mL. For each strain of microorganisms, 20 mL of these inoculum solutions were prepared. From the second to the twelfth column of 96-well plates, 50 μL of these solutions were transferred per well. To the first column, 50 μL per well of pure growth media was added. In this manner the first column was used as sterility control of media used, the second column was used as control of microorganism's growth and the rest of the plate was used for MIC determination. All plates were incubated for 16-24 h at 37° C.
(§8) MIC value was determined by visual inspection of bacterial growth within 96-well plates. The first column in which there was no visible growth of bacteria was determined as MIC value for peptide or combination tested in that particular row.

[14] = tested on: Klebsiella pneumoniae ATCC 700603; assay: microbe, parasite or virus in culture; assay type: cell-based; settings: Klebsiella pneumoniae, ATCC700603
Procedure: as §5, §6, §7, §8

[15] = tested on: Acinetobacter baumannii ATCC 17978; assay: microbe, parasite or virus in culture; assay type: cell-based; settings: Acinetobacter baumannii, ATCC17978
Procedure: as §5, §6, §7, §8

[16] = tested on: Pseudomonas aeruginosa ATCC 27853; assay: microbe, parasite or virus in culture; assay type: cell-based; settings: Pseudomonas aeruginosa, ATCC27853
Procedure: as §5, §6, §7, §8

L. lactis MG1363 [17] = assay: microbe, parasite or virus in culture; settings: Lactococcus lactis, MG1363, read-out: MIC value of antimicrobial compounds alone

CC[C@@H](C)[C@@H](NC(=O)[C@@H](CCCNC(=N)N)NC(=O)[C@@H](CCCNC(=N)N)NC(=O)[C@@H](Cc1ccccc1)NC(=O)[C@@H](CC(C)C)NC(=O)[C@@H](CCCNC(=N)N)NC(=O)[C@H](N)CCCNC(=N)N)C(=O)N[C@H](CC(C)C)C(=O)N[C@H](CCCNC(=N)N)C(=O)N[C@H](Cc1c[nH]c2ccccc12)C(=O)N[C@H](CC(C)C)C(N)=O [GNP-D6]
FICI (K. pneumoniae LMG20218 [1]): 0.375
FICI (P. aeruginosa LMG 6395 [2]; vancomycin + GNP): 0.75
FICI (E. aerogenes LMG 02094 [3]; vancomycin + GNP): 0.667
FICI (E. coli LMG15862 [4]; vancomycin + GNP): 0.75 and 0.5
FICI (K. pneumoniae LMG20218 [5]; vancomycin + GNP): 0.75 and 0.5
FICI (A. baumannii LMG01041 [6]; vancomycin + GNP): 0.5 and 0.625
FICI (E. coli LMG15862 [7]): 0.375
FICI (A. baumannii LMG01041 [8]): 0.313
FICI (P. aeruginosa LMG 6395 [9]): 0.25
FICI (E. aerogenes LMG 02094 [10]): 0.375
MIC value of antimicrobial compounds alone (L. lactis MG1363 [11]): 2 µM

CN[C@H](CC(C)C)C(=O)N[C@H]1C(=O)N[C@@H](CC(N)=O)C(=O)N[C@H]2C(=O)N[C@H]3C(=O)N[C@H](C(=O)N[C@H](C(=O)O)c4cc(O)cc(O)c4-c4cc3ccc4O)[C@H](O)c3ccc(c(Cl)c3)Oc3cc2cc(c3O[C@@H]2O[C@H](CO)[C@@H](O)[C@H](O)[C@H]2O[C@H]2C[C@](C)(N)[C@H](O)[C@H](C)O2)Oc2ccc(cc2Cl)[C@H]1O [Vancomycin, reference compound]
MICa (P. aeruginosa LMG 6395 [2]; MIC of vancomycin alone): 128 µM
MICa (E. aerogenes LMG 02094 [3]; MIC of vancomycin alone): 192 µM
MICa (E. coli LMG15862 [4]; MIC of vancomycin alone): 64 µM
MICa (K. pneumoniae LMG20218 [5]; MIC of vancomycin alone): 128 µM
MICa (A. baumannii LMG01041 [6]; MIC of vancomycin alone): 32 µM
IC50 [12]: > 44.2 µM and > 64 µg/mL
MIC [13]: > 128 µg/mL
MIC [14]: > 128 µg/mL
MIC [15]: 128 µg/mL
MIC [16]: > 128 µg/mL
MIC (L. lactis MG1363 [17]): 0.125 µM (≈ 0.181 µg/mL)
